Test results from patent publication US20260200929A1, “PYRROLO[3,2-D]PYRIMIDIN-4-ONE DERIVATIVE, AND PREPARATION METHOD THEREFOR AND MEDICAL USE THEREOF” (SHENZHEN SALUBRIS PHARMACEUTICALS CO., LTD., priority 2022, published 2026).
Like-named read-outs stand apart in the source and are kept apart here.

Legend:
[1] = Pharmacokinetic study in rats; type: in vivo, SD rats; conditions: for F: 5 mg/kg p.o versus 1 mg/kg i.v; for AUC(0-t) / Cmax / clearance / half-life: male, SD, rat, plasma
Excerpt: SD rats: male, 180-350 g, purchased from Zhejiang Vital River Laboratory Animal Technology Co., Ltd.
Reagents: dimethyl sulfoxide (DMSO), polyethylene glycol 400 (PEG-400), normal saline, acetonitrile, formic acid, propranolol (internal standard) are all commercially available.
Instrument: Thermo Fisher Scientific LC-MS (Ultimate 3000 UPLC, TSQ QUANTUMN ULTRA triple quadrupole mass spectrometer).
The compound was weighed and dissolved in a DMSO-PEG-400 normal saline (5:60:35, v/v/v) system. After intravenous administration or intragastric administration to rats, 200 μL of venous blood was collected in an EDTA-K2 anticoagulation tube at 15 minutes, 30 minutes, 1 hour, 2 hours, 5 hours, 7 hours, and 24 hours (additional 5 minutes for an IV group) and centrifuged at 12000 rpm for 2 minutes. Plasma was taken and frozen and preserved at −80° C. for testing. A certain amount of samples for test was precisely weighed and dissolved in DMSO to 2 mg/mL as a stock solution. An appropriate amount of compound stock solution was accurately sucked, and diluted by adding acetonitrile to prepare a standard series solution. 4 μL of each of the above standard series solution was accurately sucked, and added to 36 µL of blank plasma, vortex mixing was performed to prepare plasma samples equivalent to plasma concentrations of 1 ng/mL, 3 ng/mL, 5 ng/mL, 10 ng/mL, 30 ng/mL, 100 ng/mL, 300 ng/mL, 1000 ng/mL, and 3000 ng/mL. Dual sample analysis was performed for each concentration to establish a standard curve. 30 μL of plasma (5-fold dilution of plasma of intravenous administration for 5 minutes, 15 minutes, and 30 minutes) was taken, a propranolol acetonitrile solution (internal standard, 50 ng/mL) was added to precipitate the protein, after 100 μL water was added for even vortex mixing, centrifugation was performed at 4000 rpm for 5 minutes, and supernatants were taken for LC-MS/MS analysis. LC-MS detection conditions were as follows: • chromatographic column: YMC-Triart C18 50×3.0 mmI.D. S-3 μm, 12 nm
A mobile phase A: water (0.1% formic acid), a mobile phase B: acetonitrile, a flow rate: 0.5 mL/min, gradient elution: […]
After LC-MS detection of blood drug concentration, WinNonlin 6.1 software was used to calculate pharmacokinetic parameters using non compartmental model method.

CYP3A4 = test: Enzyme induction test, CYP3A4 mRNA level in human primary hepatocytes; type: in vitro ADME; conditions: CYP3A4, 10 μM, 3 days
Excerpt: (§1) Material: Williams' Medium E (without phenol red) was purchased from Sigma Aldrich Trading Co., Ltd; Williams+ Medium E, Recombinant human insulin, GlutaMAX, and HEPES were purchased from Life Technologies; Isotonic Percoll was purchased from General Electric; Fetal bovine serum was purchased from Corning; Dexamethasone was commercially available; CellTiter-Fluor™ Cell Viability Assay kit was purchased from Promega; Taqman Gene Expression Assay probe (20×, CYP1A2, FAM labeled), Taqman Gene Expression Assay probe (20×, CYP2B6, FAM labeled), Taqman Gene Expression Assay probe (20×, CYP3A4, FAM labeled), and Taqman Gene Expression Assay probe (20×, ACTB, VIC labeled) were purchased from AB (Applied Biosystems); and human primary hepatocytes were purchased from BioIVT.
(§2) The test compound, a positive inducer, a negative inducer, and internal standard were accurately weighed to prepare a stock solution with the corresponding concentration. A cell thawing solution and incubation buffer were prepared, and related reagents and consumables of mRNA extraction, reverse transcription, and fluorescence quantitative PCR were prepared.
(§3) The frozen human primary hepatocytes were thawed and inoculated onto a suitable cell culture plate at a certain density for monolayer cell culture to meet cell growth requirements. […]

[2] = biological target: T1, human myeloperoxidase (hMPO) (Homo sapiens, UniProt P05164); test: Inhibition of human myeloperoxidase (hMPO) peroxidation cycle in vitro; type: biochemical; conditions: 3'-(p-aminophenyl) fluorescein and H2O2 at Km
T1 construct: purchased PLANTANATURAL 700-03-001
Protocol: 50 μL of 2×substrate (composed of 3′-(p-aminophenyl) fluorescein and H2O2, with 3′-(p-aminophenyl) fluorescein and H2O2 both at Km concentration, purchased from Invitrogen, A36003) to a black opaque low-protein-adsorption 96-well plate (purchased from PerkinElmer, 6005270), and 45 μL of 2×compound at different concentrations (DMSO final concentration of 1%) was added. After thorough blowing and uniform mixing of a mixture, […] of […] human myeloperoxidase (purchased from PLANTANATURAL, 700-03-001) was added and mixed uniformly, and an enzyme-linked immunosorbent assay reader was immediately used at a wavelength of Ex/Em:488/520 nm to read fluorescence values for 0-30 minutes (read every 20 seconds) using a dynamic mode. Different concentrations of compound inhibitors were calculated: inhibition rate (%)=[1−(Slopecontrol−Slopecpd)/SlopeControl−SlopeBlank)]*100, where SlopeBlank is a slope of a control without the compound and an MPO well at 0-5 minutes ([…] reading/reaction time t); SlopeControl is a slope of the well without the compound (containing 1% DMSO) at 0-5 minutes (linear reaction stage); and Slopecpd is a slope of the compound at 0-5 minutes. Using a logarithmic value of the compound concentration as an abscissa and the inhibition rate as an ordinate, a 4-parameter nonlinear regression curve was fitted to calculate the IC50 value (Y=Bottom+(Top-Bottom)/(1+10^((Log IC50−X)*HillSlope)), where Hillslope represents the slope of the fitted curve, and IC50 represents the half inhibitory concentration. Test results were shown in Table 1.

CYP2B6 = test: Enzyme induction test, CYP2B6 mRNA level in human primary hepatocytes; type: in vitro ADME; conditions: CYP2B6, 10 μM, 3 days
Excerpt: as §1, §2, §3

CYP3A = CYP3A (Homo sapiens, UniProt P08684); test: Enzyme inhibition test, CYP3A in human liver microsomes; type: in vitro ADME; conditions: 0.2 mg/mL human liver microsomes
Protocol: Material: midazolam and testosterone were purchased from Cerilliant and PANPHY; ketoconazole was purchased from MCE; and human liver microsomes were purchased from Corning.
The inhibitory potential of the compound on cytochrome P450 enzyme CYP3A was evaluated using a phosphate buffer saline (100 mM, pH 7.4) system containing 0.2 mg/mL human liver microsomes. The test concentrations of the compound were 0.068 μM, 0.206 μM, 0.62 μM, 1.85 μM, 5.56 μM, 16.67 μM, and 50 μM. The positive substrates in the incubation system were 1 μM midazolam and 40 μM testosterone (CYP3A), respectively. The concentration of the positive inhibitor ketoconazole (CYP3A) in the incubation system was 0.05 μM. Incubation was carried out at 37° C., and an NADPH solution with a final concentration of 1 mM was added to initiate a reaction. The incubation time was 10 minutes. After incubation, all samples were added to 300 μL of acetonitrile solution containing 3% formic acid and internal standard (0.5 μM tolbutamide) to precipitate the protein, and the metabolic product generation of the labeled substrate was detected by UPLC-MS/MS to calculate an IC50 value of compound inhibition.

CYP1A2 = test: Enzyme induction test, CYP1A2 mRNA level in human primary hepatocytes; type: in vitro ADME; conditions: CYP1A2, 10 μM, 3 days
Excerpt: as §1, §2, §3

[3] = pH 7.4, probe midazolam (1 μM), CYP3A (Midazolam)
[4] = pH 7.4, probe testosterone (40 μM), CYP3A (Testosterone)

T1 sequence (P05164 279-745 limits assumed): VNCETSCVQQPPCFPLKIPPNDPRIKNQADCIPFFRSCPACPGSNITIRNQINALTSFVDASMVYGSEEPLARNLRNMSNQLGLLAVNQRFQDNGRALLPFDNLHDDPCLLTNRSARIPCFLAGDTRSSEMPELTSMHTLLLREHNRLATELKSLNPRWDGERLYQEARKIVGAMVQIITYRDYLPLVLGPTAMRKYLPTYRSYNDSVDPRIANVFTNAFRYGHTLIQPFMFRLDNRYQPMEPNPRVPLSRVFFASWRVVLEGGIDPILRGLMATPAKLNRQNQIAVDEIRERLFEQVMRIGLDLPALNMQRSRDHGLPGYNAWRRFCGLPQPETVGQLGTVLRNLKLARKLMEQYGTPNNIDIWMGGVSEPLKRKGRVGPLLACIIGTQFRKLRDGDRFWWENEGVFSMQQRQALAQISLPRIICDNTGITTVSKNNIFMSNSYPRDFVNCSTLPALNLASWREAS
T1 sequence (P05164 165-273 limits assumed): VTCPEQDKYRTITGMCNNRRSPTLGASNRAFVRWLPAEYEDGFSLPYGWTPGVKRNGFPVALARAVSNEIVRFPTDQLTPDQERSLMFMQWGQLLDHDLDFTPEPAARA
Chain of CYP3A (P08684 2-503): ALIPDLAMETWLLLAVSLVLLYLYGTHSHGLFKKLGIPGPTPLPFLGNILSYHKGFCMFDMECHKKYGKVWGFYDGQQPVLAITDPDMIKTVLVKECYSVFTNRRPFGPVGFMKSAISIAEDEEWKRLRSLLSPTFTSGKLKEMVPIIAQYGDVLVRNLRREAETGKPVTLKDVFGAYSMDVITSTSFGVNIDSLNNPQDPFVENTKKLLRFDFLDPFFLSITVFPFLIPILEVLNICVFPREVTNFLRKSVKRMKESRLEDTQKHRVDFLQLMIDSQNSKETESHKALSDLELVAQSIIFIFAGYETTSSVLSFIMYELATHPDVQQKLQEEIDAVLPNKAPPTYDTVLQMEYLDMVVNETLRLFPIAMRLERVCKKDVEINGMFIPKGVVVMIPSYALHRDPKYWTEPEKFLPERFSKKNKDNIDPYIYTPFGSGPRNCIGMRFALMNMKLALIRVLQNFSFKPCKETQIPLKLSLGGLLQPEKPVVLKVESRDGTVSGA

N[C@@H]1CCOc2cccc(Cn3c(=S)[nH]c(=O)c4[nH]ccc43)c21 (single isomer, unassigned) [Compound 6A]
F [1]: 57.2%
AUC(0-t) ([1]; iv, 1 mg/kg i.v): 1270 ng·h/mL
Cmax ([1]; iv, 1 mg/kg i.v): 1900 ng/mL
clearance ([1]; iv, 1 mg/kg i.v): 13 mL/min/kg
half-life ([1]; iv, 1 mg/kg i.v): 4.98 h
AUC(0-t) ([1]; po, 5 mg/kg p.o): 3630 ng·h/mL
Cmax ([1]; po, 5 mg/kg p.o): 1700 ng/mL
half-life ([1]; po, 5 mg/kg p.o): 3.66 h
mRNA Relative positive induction percentage (CYP3A4): 2.10%
IC50 [2]: 4.64 nM
mRNA Relative positive induction percentage (CYP2B6): 1.68%
IC50 at 10 min (CYP3A; [3]): > 50000 nM
IC50 at 10 min (CYP3A; [4]): 27300 nM
mRNA Relative positive induction percentage (CYP1A2): −0.29%

N[C@@H]1CCCc2cccc(Cn3c(=S)[nH]c(=O)c4[nH]ccc43)c21 (single isomer, unassigned) [Compound 7A, 1-((8-amino-5,6,7,8-tetrahydronaphthalene-1-yl)methyl)-2-thio-1,2,3,5-tetrahydro-4H-pyrrolo[3,2-d]pyrimidin-4-one]
F [1]: 83.3%
AUC(0-t) ([1]; iv, 1 mg/kg i.v): 293 ng·h/mL
Cmax ([1]; iv, 1 mg/kg i.v): 800 ng/mL
clearance ([1]; iv, 1 mg/kg i.v): 52.7 mL/min/kg
half-life ([1]; iv, 1 mg/kg i.v): 2.59 h
AUC(0-t) ([1]; po, 5 mg/kg p.o): 1220 ng·h/mL
Cmax ([1]; po, 5 mg/kg p.o): 500 ng/mL
half-life ([1]; po, 5 mg/kg p.o): 3.44 h
mRNA Relative positive induction percentage (CYP3A4): 7.93%
IC50 [2]: 4.83 nM
mRNA Relative positive induction percentage (CYP2B6): 8.41%
IC50 at 10 min (CYP3A; [3]): > 50000 nM
IC50 at 10 min (CYP3A; [4]): 19700 nM
mRNA Relative positive induction percentage (CYP1A2): 0.15%

N[C@@H]1CCCOc2cccc(Cn3c(=S)[nH]c(=O)c4[nH]ccc43)c21 (single isomer, unassigned) [Compound 15A, 1-((5-amino-2,3,4,5-tetrahydrobenzo[b]oxypyrimidin-6-yl)methyl)-2-thio-1,2,3,5-tetrahydroxy-4H-pyrrolo[3,2-d]pyrimidin-4-one]
IC50 [2]: 9.92 nM

NC1CCc2c(Cl)ccc(Cn3c(=S)[nH]c(=O)c4[nH]ccc43)c21 (stereo not drawn) [Compound 1, 1-((3-amino-7-chloro-2,3-dihydro-1H-inden-4-yl)methyl)-2-thio-1,2,3,5-tetrahydro-4H-pyrrolo[3,2-d]pyrimidin-4-one]
IC50 [2]: 51.6 nM

NC1COc2c(Cl)ccc(Cn3c(=S)[nH]c(=O)c4[nH]ccc43)c21 (stereo not drawn) [Compound 2, 1-((3-amino-7-chloro-2,3-dihydrobenzofuran-4-yl)methyl)-2-thio-1,2,3,5-tetrahydro-4H-pyrrolo[3,2-d]pyrimidin-4-one]
IC50 [2]: 33 nM

NC1COc2cccc(Cn3c(=S)[nH]c(=O)c4[nH]ccc43)c21 (stereo not drawn) [Compound 3]
IC50 [2]: 31 nM

NC1CCOc2c(Cl)ccc(Cn3c(=S)[nH]c(=O)c4[nH]ccc43)c21 (stereo not drawn) [Compound 5, 1-((4-amino-8-chlorochroman-5-yl)methyl)-2-thio-1,2,3,5-tetrahydro-4H-pyrrolo[3,2-d]pyrimidin-4-one]
IC50 [2]: 16.1 nM

NC1CCOc2cccc(Cn3c(=S)[nH]c(=O)c4[nH]ccc43)c21 (stereo not drawn) [Compound 6, 1-((4-aminochroman-5-yl)methyl)-2-thio-1,2,3,5-tetrahydro-4H-pyrrolo[3,2-d]pyrimidin-4-one]
F [1]: 48.6%
AUC(0-t) ([1]; iv, 1 mg/kg i.v): 827 ng·h/mL
clearance ([1]; iv, 1 mg/kg i.v): 19.9 mL/min/kg
half-life ([1]; iv, 1 mg/kg i.v): 3.36 h
Cmax ([1]; iv, 1 mg/kg i.v, read-out: Cmax): 620 ng/mL
AUC(0-t) ([1]; po, 5 mg/kg p.o): 2010 ng·h/mL
half-life ([1]; po, 5 mg/kg p.o): 5.13 h
Cmax ([1]; po, 5 mg/kg p.o, read-out: Cmax): 305 ng/mL
IC50 [2]: 8.02 nM

NC1CCCc2cccc(Cn3c(=S)[nH]c(=O)c4[nH]ccc43)c21 (stereo not drawn) [Compound 7, 1-((8-amino-5,6,7,8-tetrahydronaphthalene-1-yl)methyl)-2-thio-1,2,3,5-tetrahydro-4H-pyrrolo[3,2-d]pyrimidin-4-one]
IC50 [2]: 10.7 nM

Cc1c[nH]c2c(=O)[nH]c(=S)n(Cc3cccc4c3C(N)CCO4)c12 (stereo not drawn) [Compound 16]
IC50 [2]: 19.6 nM

COc1c[nH]c2c(=O)[nH]c(=S)n(Cc3cccc4c3C(N)CCO4)c12 (stereo not drawn) [Compound 17, 1-((4-aminochroman-5-yl)methyl)-7-methoxyl-2-thio-1,2,3,5-tetrahydro-4H-pyrrolo[3,2-d]pyrimidin-4-one]
IC50 [2]: 23.4 nM
